# Assay results as given in patent US20090226367A1, “COMPOSITIONS COMPRISING AN ANTI-CA125 ANTIBODY AND A CYTOTOXIC COMPOUND AND THEIR USE FOR THE TREATMENT OF CANCER” (priority 2005, published 2009).
# Assays:
# [1] = system: OVCAR-3 subcutaneous tumors; test: subcutaneous OVCAR-3 xenograft model, tumor growth; assay type: in vivo, NCr nu/nu mice; settings: for Tumor Regression (number of animals): groups of 8 mice
# Protocol: Model of Human Cancer: A subcutaneous OVCAR-3 xenograft model was used.
# Animals: Female NCr nu/nu (“nude”) mice (Taconic Farms, Germantown, N.Y.) 6-7 weeks old were used for all studies. All animals were housed in sterile micro-isolators, and were given autoclaved food and water ad libitum.
# OVCAR-3 cells were serially propagated in vivo 3 times within the peritoneal cavities of NCr nu/nu mice, followed by subcutaneous implantation in the flank of the mice. […] Mice were injected with 0.2 ml volume of the cell suspension for a final dose of 3×10^6 cells. Beginning approximately 10 days post-implantation, palpable tumors were measured with electronic calipers (Fowler Instruments, Newton, Mass.) across two perpendicular dimensions. Mice were randomly sorted into groups of eight based on tumor volume. […] Tumor measurements and observations were recorded twice a week. Tumor volume was calculated using the standard formula (Length×Width^2)×0.5.
# Control groups consisted of mice injected with 0.9% sodium chloride alone. […] Tumors were measured two times per week. Mice were sacrificed when the tumor volume was greater than 10% of their body weight.
# Tumor volumes were compared by Mann-Whitney analysis using Prizm software (GraphPad Software, Inc.). Regression was defined as beginning when a tumor reached <50% of its starting volume and ending when the tumor reached >50% of its initial volume. Partial regression (PR) was defined as when a tumor decreased by 50% or more in volume for at least 7 days, and then later regrew. Complete regression (CR) was defined as when a tumor disappeared for at least 7 days.
# [2] = nude mice; cited from earlier work
# [3] = paclitaxel 10 mg/kg weekly for three weeks (q3d7)
compound,measurement,setting,value
"CC(=O)O[C@H]1C(=O)[C@@]2(C)[C@H]([C@H](OC(=O)c3ccccc3)[C@]3(O)C[C@H](OC(=O)[C@H](O)[C@@H](NC(=O)c4ccccc4)c4ccccc4)C(C)=C1C3(C)C)[C@]1(OC(C)=O)CO[C@@H]1C[C@@H]2O [Paclitaxel, paclitaxel]",% T/C,"[1]; paclitaxel 10 mg/kg single dose (day 0), day 40, relative to saline control",58%
same,Tumor Regression (number of animals),[1]; paclitaxel 10 mg/kg single dose (day 0),no animals had observable regression of tumors
same,Duration (days) of tumor regression,[1]; [3],14 days
same,"PR (partial regression, number of animals)",[1]; [3],1
same,% T/C,"[1]; paclitaxel 10 mg/kg weekly for three weeks (q3d7), day 40",29%
same,Tumor Regression (number of animals),[1]; [3],1
same,animals demonstrating regression of tumors,[1]; three weekly treatments with 10 mg/kg paclitaxel,10%
same,MTD,[2],> 30 mg/kg
